Assay [1] relates to ADH-3 enzyme SEQ ID NO: 2. Kind of assay: Relative activity of dehydrogenase for various substrates, without cofactor regeneration (Example 1). It is filed as biochemical, Candida. Particulars: 37° C., approx. 20 hours, chiral gas chromatography. How it is done: (§1) Relative activity of the dehydrogenases of the invention for various substrates (optical purity in % ee is indicated in brackets)
(§2) The reaction was carried out without cofactor regeneration.
(§3) 180 μl of 50 mM Kpi buffer, including 1 mM MgCl2
(§4) 200 μl of NADPH, 10 mM stock solution
(§5) 100 μl of substrate, 1 M stock solution 500 μl of hexane
(§6) The reaction mixture was incubated at 37° C. and 1000 rpm for approx. 20 hours. It was then centrifuged at 20° C., the clear supernatant was removed and analyzed by chiral gas chromatography.

Assay [2] has as its system ADH-4 enzyme SEQ ID NO: 4. Described as above. It is filed as biochemical, Candida. To be noted: 37° C., approx. 20 hours, chiral gas chromatography. On the procedure: as §1, §2, §3, §4, §5, §6
The subject of assay [3] is Comparative enzyme EP 1152054 SEQ ID NO: 1. The assay is described as above. It is filed as biochemical. To be noted: 37° C., approx. 20 hours. How it is done: as §1, §2, §3, §4, §5, §6
The subject of assay [4] is ADH-3 enzyme SEQ ID NO: 2. In words: Relative activity of dehydrogenase for various substrates, with cofactor regeneration, monophasic liquid system (Example 2). The class given is biochemical, Candida. To be noted: cofactor regeneration with glucose and glucose dehydrogenase. On the procedure:
(§7) Relative activity of the dehydrogenases of the invention for various substrates (optical purity in % ee is indicated in brackets) with cofactor regeneration.
(§8) The reaction was carried out in a manner similar to example 1. Cofactor regeneration was carried out by way of addition of glucose and glucose dehydrogenase in a monophasic liquid system.

Assay [5] relates to Comparative enzyme EP 1152054 SEQ ID NO: 1. The description is as above. Particulars: cofactor regeneration with glucose and glucose dehydrogenase. The class given is biochemical. On the procedure: as §7, §8
For assay [6], the system named is ADH-3 enzyme SEQ ID NO: 2. Kind of assay: Relative activity of dehydrogenase for various substrates, with cofactor regeneration in the 2-phase system (Example 3). The class given is biochemical, Candida.
Assay [7] deals with ADH-4 enzyme SEQ ID NO: 4. The description is as above. It is filed as biochemical, Candida.
Assay [8] concerns Comparative enzyme EP 1152054 SEQ ID NO: 1. The description is as above. The class given is biochemical.
The test system of assay [9] is ADH-4 enzyme SEQ ID NO: 4. In words: Relative activity of dehydrogenase for various substrates, with cofactor regeneration, monophasic liquid system (Example 2). It is filed as biochemical, Candida. To be noted: cofactor regeneration with glucose and glucose dehydrogenase. On the procedure:
as §7, §8

The mark [10] stands for this setting: ADH-3 enzyme, cofactor regeneration, two-phase liquid system (MTBE: aqueous).
Setting [11] is: ADH-4 enzyme, cofactor regeneration, two-phase liquid system (MTBE: aqueous).
[12] abbreviates: cofactor regeneration, two-phase liquid system (MTBE: aqueous).

In the case of `CC(=O)c1ccccc1` [Acetophenone], the Relative activity in assay [1] is 16.08; in assay [2] it was 3.14; in assay [3] it was 0.84; in assay [4], 8.9; in assay [5] it was 0.7; in assay [6] (setting [10]), 71.2. Also, the figures for the Relative activity in [7] (setting [11]) and in assay [8] (setting [12]) were 0.4 and 0.2, respectively.

Consider 4-chloro-methoxyacetophenone [CMAP], for which the Relative activity in assay [1] is listed as 34.46; in [2], 24.89; in assay [3], 29.44; in assay [6] (setting [10]), 100; in assay [7] (setting [11]), 77.1; in assay [8] (setting [12]), 46.8.

Take `O=C(CCl)c1cccc(Cl)c1` [m-DICAP, 2,3′-dichloro-acetophenone]: the Relative activity in assay [1] amounted to 100; in [2] it was 56.38; in assay [3], 2.3; in assay [4] it was 100; in [9], 55.8; in assay [5], 47.1. The values for the Relative activity in [6], in [7] and in assay [8] ([…]) were 100, 24.6 (6% S) and 14 (>99% R), respectively.

As to `O=C(CCl)c1ccc(Cl)cc1` [p-DICAP, 2,4′-dichloro-acetophenone], the Relative activity in assay [4] was 18.9; in [9], 62.1; in assay [5], 62.5; in assay [6], 30.4 (>99% R); in [7], 27.6 (42% S); in assay [8] ([…]), 24.2 (>99% R).

In the case of `O=C(CCl)c1ccc(F)cc1` [FCA, 4′-fluoro-2-chloro-acetophenone], the Relative activity was found to be 99.5 in assay [4]; 53.6 in assay [9]; 50.4 in assay [5]; 99.5 in assay [6]; 15.3 in assay [7]; 12.6 in assay [8] ([…]).
